In patent publication US5610174A, “Use of α1A -selective adrenoceptor agonists for the treatment of urinary incontinence” (priority 1995, dated 1997):
Where two headings read alike, the source gives them in different places.

Assays:
human 5-HT1A receptor = target: T1, human 5-HT1A receptor (Homo sapiens, UniProt P08908); assay: Radioligand binding at human 5-HT1A
T1 construct: expressed in transfected cells; host or cells: COS-7, transient (a cell line 5-HT1A-3, ATCC CRL 11889, is also named)
T1 sequence (P08908 1-422): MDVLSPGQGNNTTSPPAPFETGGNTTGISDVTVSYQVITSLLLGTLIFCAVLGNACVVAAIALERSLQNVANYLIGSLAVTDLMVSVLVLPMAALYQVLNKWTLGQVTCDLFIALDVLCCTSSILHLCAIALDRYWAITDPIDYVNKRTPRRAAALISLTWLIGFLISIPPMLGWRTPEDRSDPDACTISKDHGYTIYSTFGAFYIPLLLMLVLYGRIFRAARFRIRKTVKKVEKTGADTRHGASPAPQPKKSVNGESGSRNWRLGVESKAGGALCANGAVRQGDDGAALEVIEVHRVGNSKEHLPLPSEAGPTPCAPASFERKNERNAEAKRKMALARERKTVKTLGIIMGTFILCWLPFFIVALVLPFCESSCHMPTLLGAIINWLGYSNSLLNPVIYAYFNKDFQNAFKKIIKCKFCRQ
Procedure: The cDNA corresponding to the 5-HT1A receptor open reading frames and variable non-coding 5'- and 3'-regions, was cloned into the eukaryotic expression vector pCEXV-3. These constructs were transfected transiently into COS-7 cells by the DEAE-dextran method, and harvested after 72 hours. Radioligand binding assays were performed as described above for the 5-HT2 receptor, except that [3H]-8-OH-DPAT was used as the radioligand and nonspecific binding was determined by the addition of 10 μM mianserin.

[1] = target: T2, female dog urethra (α1-adrenoceptor) (Canis lupus, UniProt A0A8I3NK63); assay: Contractile study in isolated female dog urethra; details: for pEC50 Urethra: agonist contraction
T2 sequence (A0A8I3NK63 1-466): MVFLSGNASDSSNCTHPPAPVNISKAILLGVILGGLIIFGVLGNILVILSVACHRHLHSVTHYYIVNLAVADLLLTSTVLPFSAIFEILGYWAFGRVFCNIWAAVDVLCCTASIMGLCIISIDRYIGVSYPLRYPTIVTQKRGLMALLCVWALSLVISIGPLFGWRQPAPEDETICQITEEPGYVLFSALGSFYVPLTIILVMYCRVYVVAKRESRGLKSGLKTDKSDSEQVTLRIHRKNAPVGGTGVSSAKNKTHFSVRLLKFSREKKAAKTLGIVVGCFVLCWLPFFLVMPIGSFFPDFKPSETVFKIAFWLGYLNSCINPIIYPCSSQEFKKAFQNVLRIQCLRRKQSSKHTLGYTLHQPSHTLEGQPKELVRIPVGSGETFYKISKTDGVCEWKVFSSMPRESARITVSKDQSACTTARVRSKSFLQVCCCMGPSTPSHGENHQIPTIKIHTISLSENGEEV
Source text: In addition, similar studies were done using bladder neck tissue from female dogs. In order to identify the specific receptor subtype in each tissue, the pharmacological profile was compared to the profiles for these same drugs at the cloned human α1A, α1B, or α1C subtypes.
Tissue samples from the proximal urethra of male humans and male and female rabbits, as well as tissue samples from both the proximal urethra and bladder neck of male and female dogs were cut into transverse strips (3×10 mm) and suspended under 0.5 g tension in Krebs' physiological buffer at 37° C. To determine agonist potency (pEC50 )and antagonist affinity constants (pKB), concentration-effect curves to the non-selective agonist phenylepherine were constructed in the absence and in the presence of increasing concentrations of the antagonist. Up to four sequential curves were constructed in each tissue. Antagonists were allowed to equilibrate for 1h before each concentration-effect curve, and the drugs were completely washed out in between successive curves. In each experiment, one tissue served as a "time control", in which no antagonist was added so that changes in tissue sensitivity could be assessed as a function of time. […] In instances in which a single concentration of antagonist was used, pKB values were determined by the equation: […], where CR is defined as the ratio of the agonist EC50 in the presence of the antagonist to that in the absence of the antagonist.

human 5-HT7 receptor = target: T3, human 5-HT7 receptor (Homo sapiens, UniProt P34969); assay: Radioligand binding at human 5-HT7
T3 construct: expressed in transfected cells; host or cells: LM(tk-) clonal cell line, designated L-5-HT-4B, ATCC CRL 11166 (cell lysates)
Procedure: Human Serotonin Receptors
5-HT1Dα, 5-HT1Dβ, 5-HT1E, 5-HT1F, and 5-HT7 Receptors: The cell lysates of LM(tk-) clonal cell line stably transfected with the genes encoding each of these 5-HT receptor-subtypes were prepared as described above. The cell line for the 5-HT1Dαreceptor, designated as Ltk-8-30-84, was deposited on Apr. […] The cell for the 5-HT1Dβ receptor, designated as Ltk-11, was deposited on Apr. […] The cell line for the 5-HT1E receptor, designated 5-HT1E -7, was deposited on Nov. […] The cell line for the 5-HT1F receptor, designated L-5-HT1F, was deposited on Dec. […] The cell line for the 5-HT7 receptor, designated as L-5-HT-4B, was deposited on Oct. […] These preparations were suspended in 50 mM Tris-HCl buffer (pH 7.4 at 37° C.) containing 10 mM MgCl2, 0.2 mM EDTA, 10 μM pargyline, and 0.1% ascorbate. […] Nonspecific binding was determined in the presence of 10 μM serotonin. The bound radioligand was separated by filtration through GF/B filters using a cell harvester.

human 5-HT2 receptor = target: T4, human 5-HT2 receptor (Homo sapiens, UniProt P28223); assay: Radioligand binding at human 5-HT2; details: [3H]ketanserin; read-out: pKi 5-HT2 (converted)
T4 construct: expressed in transfected cells; host or cells: COS-7 cells (text also names deposited cell line L-NGC-5-HT2, ATCC CRL 10287)
Procedure: The coding sequence of the human 5-HT2 receptor was obtained from a human brain cortex cDNA library, and cloned into the cloning site of pCEXV-3 eukaryotic expression vector. This construct was transfected into COS-7 cells by the DEAE-dextran method. Cells were harvested after 72 hours and lysed by sonication in 5 mM Tris-HCl, 5 mM EDTA, pH 7.5. This cell line was deposited with the ATCC on Oct. […] The cell lysates were centrifuged at 1000 rpm for 5 minutes at 4° C., and the supernatant was centrifuged at 30,000×g for 20 minutes at 4° C. The pellet was suspended in 50 mM Tris-HCl buffer (pH 7.7 at room temperature) containing 10 mM MgSO4, 0.5 mM EDTA, and 0.1% ascorbate. […] Nonspecific binding was defined by the addition of 10 μM mianserin. The bound radioligand was separated by filtration through GF/B filters using a cell harvester.

T3 sequence (P34969 1-445 isoform P34969-2): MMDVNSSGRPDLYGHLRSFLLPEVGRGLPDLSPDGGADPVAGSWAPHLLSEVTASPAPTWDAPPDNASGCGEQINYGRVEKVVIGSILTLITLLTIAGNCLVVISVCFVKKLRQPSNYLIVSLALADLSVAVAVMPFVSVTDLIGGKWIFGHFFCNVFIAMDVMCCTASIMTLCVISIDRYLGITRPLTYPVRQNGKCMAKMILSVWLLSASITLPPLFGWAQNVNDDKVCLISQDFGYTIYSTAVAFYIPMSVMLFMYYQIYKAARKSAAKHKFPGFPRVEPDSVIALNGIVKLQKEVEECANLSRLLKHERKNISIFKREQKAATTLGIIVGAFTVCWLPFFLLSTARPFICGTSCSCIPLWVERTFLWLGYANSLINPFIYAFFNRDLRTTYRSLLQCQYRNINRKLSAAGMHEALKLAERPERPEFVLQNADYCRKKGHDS
T4 sequence (P28223 whole entry): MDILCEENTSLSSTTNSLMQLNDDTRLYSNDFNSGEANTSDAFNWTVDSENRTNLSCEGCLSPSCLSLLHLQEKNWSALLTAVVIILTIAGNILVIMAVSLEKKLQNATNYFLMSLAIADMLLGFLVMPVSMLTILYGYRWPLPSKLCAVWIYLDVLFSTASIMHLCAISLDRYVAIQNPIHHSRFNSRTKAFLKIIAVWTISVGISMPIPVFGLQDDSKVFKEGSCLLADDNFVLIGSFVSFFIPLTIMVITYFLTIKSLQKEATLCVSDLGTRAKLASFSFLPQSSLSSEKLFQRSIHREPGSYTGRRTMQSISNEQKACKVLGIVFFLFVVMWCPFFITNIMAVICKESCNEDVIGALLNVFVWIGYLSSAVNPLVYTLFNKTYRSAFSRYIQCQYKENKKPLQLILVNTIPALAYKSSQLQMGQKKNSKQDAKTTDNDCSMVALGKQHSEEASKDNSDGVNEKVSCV

Compound | pKi 5-HT1A (human 5-HT1A receptor; [3H]-8-OH-DPAT) | sensitivity of the contraction to prazosin, urethra [1] | pEC50 Urethra [1] | pKi 5-HT7 (human 5-HT7 receptor; [3H]serotonin) | Ki (human 5-HT1A receptor; [3H]-8-OH-DPAT, read-out: pKi 5-HT1A (converted)) | Ki (human 5-HT2 receptor) | Ki (human 5-HT7 receptor; [3H]serotonin, read-out: pKi 5-HT7 (converted)) | Ki (human 5-HT1A receptor) | Ki (human 5-HT7 receptor)
CNCCc1ccc(O)c(NS(C)(=O)=O)c1 [SK&F 102652] | 5.8 | highly sensitive to prazosin | 6.0 | 5.3 | – | – | – | – | –
CS(=O)(=O)Nc1c(O)ccc2c1CCCC2C1=NCCN1 (racemic) [Compound A-61603, (±)-N-[5-(4,5-Dihydro-1H-imidazol-2-yl)-2-hydroxy-5,6,7,8-tetra-hydronaphthalen-1-yl]methanesulfonamide] | – | highly sensitive to prazosin | 6.7 | – | 3980 nM | 50100 nM | 5010 nM | – | –
COc1ccc(SC)c2c1C[C@@H]1[C@@H](C2)OCCN1C (relative stereo) [SDZ NVI-085, (±)-trans-4-Methyl-6-methoxy-9-thiomethoxy-3,4,4a, 5,10,10a-hexahydro-2H-naphtho[2,3-b][1,4]oxazine] | – | – | – | – | – | 316 nM | – | 79.4 nM | 100 nM
